Source: patent US10377717B2, “Farnesoid X receptor agonists and uses thereof” (Metacrine, Inc., priority 2015, dated 2019)

Molecular target: hFXR (Homo sapiens (Human), UniProt Q96RI1)
Assay: In Vitro FXR Assay (TK), luciferase reporter in transfected CV-1 cells
Assay type: cell-based
Settings: TK-ECRE-luc reporter, hFXR/hRXR, 18 hrs, maximum efficacy <25% of Fexaramine control classified as '+'
Protocol: CV-1 cells were seeded at a density of 2,000,000 cells in a T175 flask with DMEM+10% charcoal double-stripped FBS and incubated at 37° C. in 5% CO2 for 18 h (O/N).
After 18 h of incubation, the medium in the T175 flask was changed with fresh DMEM+10% charcoal super-stripped serum. In a polypropylene tube, 2500 μL OptiMEM (Life Technologies, Cat #31985-062) was combined with expression plasmids for hFXR, hRXR, TK-ECRE-luc and pCMX-YFP. The tube was then briefly vortexed and incubated at room temperature for 5 minutes. Transfection reagent (X-tremeGENE HP from Roche, Cat #06 366 236 001) was added to the OptiMEM/plasmid mixture vortexed and incubated at room temperature for 20 minutes. Following incubation, the transfection reagent/DNA mixture complex was added to cells in the T175 flask and the cells were incubated at 37° C. in 5% CO2 for 18 h (O/N).
Compounds were serially diluted in DMSO and added to transfected CV-1 cells. The cells were then incubated for 18 hrs. The next day cells were lysed and examined for luminescence.

hFXR, sequence (Q96RI1 whole entry): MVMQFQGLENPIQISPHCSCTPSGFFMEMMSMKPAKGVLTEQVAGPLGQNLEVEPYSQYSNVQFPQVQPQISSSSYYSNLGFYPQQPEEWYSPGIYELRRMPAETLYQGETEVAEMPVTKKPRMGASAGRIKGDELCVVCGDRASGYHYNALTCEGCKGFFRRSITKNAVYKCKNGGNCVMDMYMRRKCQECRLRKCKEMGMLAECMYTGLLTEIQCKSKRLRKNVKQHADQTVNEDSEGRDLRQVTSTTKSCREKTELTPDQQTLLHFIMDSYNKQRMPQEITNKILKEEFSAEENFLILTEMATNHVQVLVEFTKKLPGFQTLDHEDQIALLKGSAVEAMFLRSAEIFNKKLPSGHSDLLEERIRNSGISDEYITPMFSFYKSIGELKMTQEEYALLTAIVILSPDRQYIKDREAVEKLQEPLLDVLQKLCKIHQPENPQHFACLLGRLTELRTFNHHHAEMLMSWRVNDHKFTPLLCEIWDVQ
hFXR, sequence (P19793 whole entry partner): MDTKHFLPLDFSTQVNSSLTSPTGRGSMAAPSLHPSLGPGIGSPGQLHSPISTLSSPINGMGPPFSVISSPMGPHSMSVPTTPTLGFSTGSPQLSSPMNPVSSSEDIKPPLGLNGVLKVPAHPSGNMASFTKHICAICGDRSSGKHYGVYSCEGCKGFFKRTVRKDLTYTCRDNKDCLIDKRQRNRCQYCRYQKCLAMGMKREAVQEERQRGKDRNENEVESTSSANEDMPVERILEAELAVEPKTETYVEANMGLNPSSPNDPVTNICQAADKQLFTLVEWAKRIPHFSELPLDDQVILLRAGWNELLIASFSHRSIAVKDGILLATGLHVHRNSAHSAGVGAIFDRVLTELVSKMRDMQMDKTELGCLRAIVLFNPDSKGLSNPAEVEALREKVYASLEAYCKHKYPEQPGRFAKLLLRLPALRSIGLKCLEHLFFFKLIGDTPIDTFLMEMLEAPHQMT

Row | EC50 | SMILES
1 | ≤ 1000 nM | COC(=O)c1ccc2c(N(Cc3ccc(-c4ccc(OC)c(C)c4)c(C#N)c3)C(=O)CC(C)(C)C)nccc2c1 [Compound 26, Methyl 1-(N-((2-cyano-4′-methoxy-3′-methyl-[1,1′-biphenyl]-4-yl)methyl)-3,3-dimethylbutanamido)isoquinoline-6-carboxylate]
2 | ≥ 10000 nM | COC(=O)c1ccc2c(N(Cc3ccc(-c4ccc(OC)c(C)c4)cc3)C(C)=O)nccc2c1 [Compound 27, Methyl 1-(N-((4′-methoxy-3′-methyl-[1,1′-biphenyl]-4-yl)methyl)acetamido)isoquinoline-6-carboxylate]
3 | ≤ 1000 nM | COC(=O)c1ccc2c(N(Cc3ccc(-c4ccc(OC)c(C#N)c4)cc3)C(=O)CC(C)(C)C)nccc2c1 [Compound 24, Methyl 1-(N-((3′-cyano-4′-methoxy-[1,1′-biphenyl]-4-yl)methyl)-3,3-dimethylbutanamido)isoquinoline-6-carboxylate]
4 | ≤ 1000 nM | COCc1ccc(-c2ccc(CN(C(=O)CC(C)(C)C)c3nccc4cc(C(=O)OC)ccc34)cc2)cc1 [Compound 58, Methyl 1-(N-((4′-(methoxymethyl)-[1,1′-biphenyl]-4-yl)methyl)-3,3-dimethylbutanamido)isoquinoline-6-carboxylate]
5 | 1000 to 10000 nM | COC(=O)c1ccc2c(N(Cc3ccc(-c4ccc(OC)c(C)c4)cc3)C(=O)CCc3ccccc3)nccc2c1 [Compound 77, Methyl 1-(N-((4′-methoxy-3′-methyl-[1,1′-biphenyl]-4-yl)methyl)-3-phenylpropanamido)isoquinoline-6-carboxylate]
6 | ≤ 1000 nM | COC(=O)c1ccc2c(N(Cc3ccc(-c4ccc(OC)c(C)c4)cc3)C(=O)CC3CCC3)nccc2c1 [Compound 79, Methyl 1-(2-cyclobutyl-N-((4′-methoxy-3′-methyl-[1,1′-biphenyl]-4-yl)methyl)acetamido)isoquinoline-6-carboxylate]
7 | 1000 to 10000 nM | COc1ccc(-c2ccc(CN(C(=O)CC(C)(C)C)c3nccc4cc(CCC(=O)O)ccc34)cc2)cc1C [Compound 104, 3-(1-(N-((4′-Methoxy-3′-methyl-[1,1′-biphenyl]-4-yl)methyl)-3,3-dimethylbutanamido)isoquinolin-6-yl)propanoic Acid]
8 | ≥ 10000 nM | COC(=O)c1ccc2c(N(C[C@H]3CC[C@H](c4ccccc4OC)CC3)C(=O)CC(C)(C)C)nccc2c1 [Compound 92, Methyl 1-(N-((trans-4-(2-methoxyphenyl)cyclohexyl)methyl)-3,3-dimethylbutanamido)isoquinoline-6-carboxylate]
9 | ≥ 10000 nM | COC(=O)c1ccc2c(N(Cc3ccc(-c4ccc(OC)c(C)c4)cc3)C(=O)CCCO)nccc2c1 [Compound 85, Methyl 1-(4-hydroxy-N-((4′-methoxy-3′-methyl-[1,1′-biphenyl]-4-yl)methyl)butanamido) isoquinoline-6-carboxylate]
10 | ≤ 1000 nM | COC(=O)c1ccc2c(N(Cc3ccc(-c4ccc5c(c4)CCO5)cc3)C(=O)CC(C)(C)C)nccc2c1 [Compound 46, Methyl 1-(N′-(4-(2,3-dihydrobenzofuran-5-yl)benzyl)-3,3-dimethylbutanamido)isoquinoline-6-carboxylate]
11 | 1000 to 10000 nM | COC(=O)c1ccc2c(N(Cc3ccc(-c4ccc(CO)cc4)cc3)C(=O)CC(C)(C)C)nccc2c1 [Compound 43, Methyl 1-(N-((4′-(hydroxymethyl)-[1,1′-biphenyl]-4-yl)methyl)-3,3-dimethylbutanamido)isoquinoline-6-carboxylate]
12 | ≤ 1000 nM | COC(=O)c1ccc2c(N(Cc3ccc(-c4ccc(OC)c(C)c4)cc3)C(=O)CC3CCCC3)nccc2c1 [Compound 72, Methyl 1-(2-cyclopentyl-N-((4′-methoxy-3′-methyl-[1,1′-biphenyl]-4-yl)methyl)acetamido)isoquinoline-6-carboxylate]
13 | ≤ 1000 nM | COC(=O)c1ccc2c(N(Cc3ccc(-c4ccc5c(c4)CCN5)cc3)C(=O)CC(C)(C)C)nccc2c1 [Compound 63, Methyl 1-(N-(4-(indolin-5-yl)benzyl)-3,3-dimethylbutanamido)isoquinoline-6-carboxylate]
14 | ≤ 1000 nM | COC(=O)c1ccc2c(N(Cc3ccc(-c4ccc(OC)c(F)c4F)cc3)C(=O)CC(C)(C)C)nccc2c1 [Compound 29, Methyl 1-(N-((2′,3′-difluoro-4′-methoxy-[1,1′-biphenyl]-4-yl)methyl)-3,3-dimethylbutanamido)isoquinoline-6-carboxylate]
15 | ≤ 1000 nM | COC(=O)/C=C/c1ccnc(N(C[C@H]2CC[C@H](c3ccc(OC)c(C)c3)CC2)C(=O)C2CCCCC2)c1 [Compound 18, (E)-Methyl 3-(2-(N-((trans-4-(4-methoxy-3-methylphenyl)cyclohexyl)methyl)cyclohexanecarboxamido)pyridin-4-yl)acrylate]
16 | ≤ 1000 nM | COC(=O)c1ccc2c(N(Cc3ccc(-c4cnc(OC)c(Cl)c4)cc3)C(=O)CC(C)(C)C)nccc2c1 [Compound 36, Methyl 1-(N-(4-(5-chloro-6-methoxypyridin-3-yl)benzyl)-3,3-dimethylbutanamido)isoquinoline-6-carboxylate]
17 | ≥ 10000 nM | COC(=O)c1ccc2c(N(Cc3ccc(-c4ccc(OC)c(C)c4)cc3)C(=O)Cc3ccccc3)nccc2c1 [Compound 75, Methyl 1-(N-((4′-methoxy-3′-methyl-[1,1′-biphenyl]-4-yl)methyl)-2-phenylacetamido)isoquinoline-6-carboxylate]
18 | ≤ 1000 nM | COc1ccc(-c2ccc(CN(C(=O)CC(C)(C)C)c3nccc4cc(C(=O)OC(C)C)ccc34)cc2)cc1C [Compound 69, Isopropyl 1-(N-((4′-methoxy-3′-methyl-[1,1′-biphenyl]-4-yl)methyl)-3,3-dimethylbutanamido)isoquinoline-6-carboxylate]
19 | ≤ 1000 nM | COC(=O)c1ccc2c(N(Cc3ccc(-c4ccc(C(F)F)cc4)cc3)C(=O)CC(C)(C)C)nccc2c1 [Compound 56, Methyl 1-(N-((4′-(difluoromethyl)-[1,1′-biphenyl]-4-yl)methyl)-3,3-dimethylbutanamido)isoquinoline-6-carboxylate]
20 | ≤ 1000 nM | COc1ccc(-c2ccc(CN(C(=O)C3CCCCC3)c3nccc4cc(C(=O)OC(C)C)ccc34)cc2)cc1C [Compound 22, Isopropyl 1-(N-((4′-methoxy-3′-methyl-[1,1′-biphenyl]-4-yl)methyl)cyclohexanecarboxamido) isoquinoline-6-carboxylate]
21 | ≤ 1000 nM | COC(=O)c1ccc2c(N(Cc3ccc(-c4ccc(C#N)c(Cl)c4)cc3)C(=O)CC(C)(C)C)nccc2c1 [Compound 31, Methyl 1-(N-((3′-chloro-4′-cyano-[1,1′-biphenyl]-4-yl)methyl)-3,3-dimethylbutanamido)isoquinoline-6-carboxylate]
22 | ≤ 1000 nM | COCCc1ccc(-c2ccc(CN(C(=O)CC(C)(C)C)c3nccc4cc(C(=O)OC)ccc34)cc2)cc1 [Compound 62, Methyl 1-(N-((4′-(2-methoxyethyl)-[1,1′-biphenyl]-4-yl)methyl)-3,3-dimethylbutanamido)isoquinoline-6-carboxylate]
23 | ≥ 10000 nM | COC(=O)c1ccc2c(N(Cc3ccc(-c4ccc(OC)c(C)c4)cc3)C(=O)CCCOCc3ccccc3)nccc2c1 [Compound 78, Methyl 1-(4-(benzyloxy)-N-((4′-methoxy-3′-methyl-[1,1′-biphenyl]-4-yl)methyl)butanamido)isoquinoline-6-carboxylate]
24 | 1000 to 10000 nM | COC(=O)c1ccc2c(N(Cc3ccc(-c4ccc(C)nc4)cc3)C(=O)CC(C)(C)C)nccc2c1 [Compound 39, Methyl 1-(3,3-dimethyl-N-(4-(6-methylpyridin-3-yl)benzyl)butanamido)isoquinoline-6-carboxylate]
25 | 1000 to 10000 nM | CCOc1ccc(-c2ccc(CN(C(=O)CC(C)(C)C)c3nccc4cc(C(=O)OC)ccc34)cc2)cc1 [Compound 52, Methyl 1-(N-((4′-ethoxy-[1,1′-biphenyl]-4-yl)methyl)-3,3-dimethylbutanamido)isoquinoline-6-carboxylate]
26 | ≤ 1000 nM | COC(=O)c1ccc2c(N(Cc3ccc(-c4ccc(OC)c(C)c4)cc3)C(=O)C3CCCCC3)nccc2c1 [Compound 20, Methyl 1-(N-((4′-methoxy-3′-methyl-[1,1′-biphenyl]-4-yl)methyl)cyclohexanecarboxamido) isoquinoline-6-carboxylate]
27 | ≤ 1000 nM | COC(=O)c1ccc2c(N(Cc3ccc(-c4ccc(C#N)c(C)c4)cc3)C(=O)CC(C)(C)C)nccc2c1 [Compound 42, Methyl 1-(N-((4′-cyano-3′-methyl-[1,1′-biphenyl]-4-yl)methyl)-3,3-dimethylbutanamido)isoquinoline-6-carboxylate]
28 | ≥ 10000 nM | COC(=O)c1cc2c(N(Cc3ccc(-c4ccc(N(C)C)cc4)cc3)C(=O)C3CCCCC3)cccc2[nH]1 [Compound 11, Methyl 4-(N-((4′-(dimethylamino)-[1,1′-biphenyl]-4-yl)methyl)cyclohexanecarboxamido)-1H-indole-2-carboxylate]
29 | 1000 to 10000 nM | COCCOc1ccc(-c2ccc(CN(C(=O)CC(C)(C)C)c3nccc4cc(C(=O)OC)ccc34)cc2)cc1 [Compound 59, Methyl 1-(N-((4′-(2-methoxyethoxy)-[1,1-biphenyl]-4-yl)methyl)-3,3-dimethylbutanamido)isoquinoline-6-carboxylate]
30 | ≤ 1000 nM | COC(=O)c1ccc2c(N(Cc3ccc(-c4ccc(C)c(Cl)c4)cc3)C(=O)CC(C)(C)C)nccc2c1 [Compound 55, Methyl 1-(N-((3′-chloro-4′-methyl-[1,1′-biphenyl]-4-yl)methyl)-3,3-dimethylbutanamido)isoquinoline-6-carboxylate]
